Test results as given in US12338256B2, “Aza-tetracyclic oxazepine compounds and uses thereof” (Genentech, Inc., priority 2022, dated 2025).

Experiments:
[1] = tested on: HPAC (homozygous mutant KRAS G12D human pancreatic cell line); assay: KRAS 3D-Cell Proliferation Assay, HPAC (Example 503); format: cell-based; details: Homo sapiens, HPAC, 168 h, HPAC 3D culture, 7 days, CellTiter-Glo 3D; read-out: Prolif HPAC 3D ATP IC50
Procedure, shortened: (§1)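 IC50s come from a 4-parameter Hill fit of luminescence (CellTiter-Glo 3D) normalized between DMSO (0%) and 1 μM staurosporine (100%). Cells in low-attachment 3D culture, RPMI-1640 with 10% FBS, received serial compound dilutions (0.3% DMSO) after overnight and were incubated 7 days at 37 °C.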

[2] = tested on: H1975 (KRAS wild type human lung adenocarcinoma cell line); assay: KRAS 3D-Cell Proliferation Assay, H1975 (Example 503); format: cell-based; details: Homo sapiens, NCI-H1975, 168 h, H1975 3D culture, 7 days, CellTiter-Glo 3D; read-out: Prolif H1975 3D ATP IC50
Procedure, shortened: as §1

Compound | IC50 [1] [nM] | IC50 [2] [nM]
Cc1c(F)c(N)cc(-c2nc3c4c(nc(OCC56COC(CN5C)C6)nc4c2F)N2C[C@H]4CC[C@H](N4)[C@H]2[C@H](C)O3)c1C(F)(F)F [Compound 132, 2-Fluoro-5-((5S,5aS,6S,9R)-1-fluoro-5-methyl-12-((5-methyl-2-oxa-5-azabicyclo[2.2.1]heptan-4-yl)methoxy)-5a,6,7,8,9,10-hexahydro-5H-4-oxa-3,10a,11,13,14-pentaaza-6,9-methanonaphtho[1,8-ab]heptalen-2-yl)-3-methyl-4-(trifluoromethyl)aniline] | 70.4 | 14200
Cc1c(F)c(N)cc(-c2nc3c4c(nc(OC[C@@H]5CO[C@H]6CC[N@]5C6)nc4c2F)N2C[C@H]4CC[C@H](N4)[C@H]2[C@H](C)O3)c1C(F)(F)F [Compound 135, 5-((5S,5aS,6S,9R)-12-(((1R,2S,5S)-4-Oxa-1-azabicyclo[3.2.1]octan-2-yl)methoxy)-1-fluoro-5-methyl-5a,6,7,8,9,10-hexahydro-5H-4-oxa-3,10a,11,13,14-pentaaza-6,9-methanonaphtho[1,8-ab]heptalen-2-yl)-2-fluoro-3-methyl-4-(trifluoromethyl)aniline] | 95.6 | 20000
Cc1c(F)c(N)cc(-c2nc3c4c(nc(OCCCN5CCOCC5)nc4c2F)N2C[C@H]4CC[C@H](N4)[C@H]2[C@H](C)O3)c1C(F)(F)F [Compound 138, 2-Fluoro-5-((5S,5aS,6S,9R)-1-fluoro-5-methyl-12-(3-morpholinopropoxy)-5a,6,7,8,9,10-hexahydro-5H-4-oxa-3,10a,11,13,14-pentaaza-6,9-methanonaphtho[1,8-ab]heptalen-2-yl)-3-methyl-4-(trifluoromethyl)aniline] | 15.1 | 2550
Cc1c(F)c(N)cc(-c2nc3c4c(nc(OCC56C[C@H](F)CN5C[C@@H](F)C6)nc4c2F)N2C[C@H]4CC[C@H](N4)[C@H]2[C@H](C)O3)c1C(F)(F)F [Compound 139, 5-((5S,5aS,6S,9R)-12-(((2S,6S)-2,6-Difluorotetrahydro-1H-pyrrolizin-7a(5H)-yl)methoxy)-1-fluoro-5-methyl-5a,6,7,8,9,10-hexahydro-5H-4-oxa-3,10a,11,13,14-pentaaza-6,9-methanonaphtho[1,8-ab]heptalen-2-yl)-2-fluoro-3-methyl-4-(trifluoromethyl)aniline] | 118 | 8570
Cc1c(F)c(N)cc(-c2nc3c4c(nc(OC[C@]56C[C@H](F)CN5C[C@H](F)C6)nc4c2F)N2C[C@H]4CC[C@H](N4)[C@H]2[C@H](C)O3)c1C(F)(F)F [Compound 141, 5-((5S,5aS,6S,9R)-12-(((2R,6S,7ar)-2,6-Difluorotetrahydro-1H-pyrrolizin-7a(5H)-yl)methoxy)-1-fluoro-5-methyl-5a,6,7,8,9,10-hexahydro-5H-4-oxa-3,10a,11,13,14-pentaaza-6,9-methanonaphtho[1,8-ab]heptalen-2-yl)-2-fluoro-3-methyl-4-(trifluoromethyl)aniline] | 6.92 | 6240
Cc1c(F)c(N)cc(-c2nc3c4c(nc(OC[C@@]56C[C@H](F)CN5C[C@H](F)C6)nc4c2F)N2C[C@H]4CC[C@H](N4)[C@H]2[C@H](C)O3)c1C(F)(F)F [Compound 142, 5-((5S,5aS,6S,9R)-12-(((2R,6S,7as)-2,6-Difluorotetrahydro-1H-pyrrolizin-7a(5H)-yl)methoxy)-1-fluoro-5-methyl-5a,6,7,8,9,10-hexahydro-5H-4-oxa-3,10a,11,13,14-pentaaza-6,9-methanonaphtho[1,8-ab]heptalen-2-yl)-2-fluoro-3-methyl-4-(trifluoromethyl)aniline] | 5.45 | 3560
Cc1c(F)c(N)cc(-c2nc3c4c(nc(OC[C@H](F)CN5CC6(COC6)C5)nc4c2F)N2C[C@H]4CC[C@H](N4)[C@H]2[C@H](C)O3)c1C(F)(F)F [Compound 144] | 21.2 | 7510
Cc1c(F)c(N)cc(-c2nc3c4c(nc(OC[C@@H](F)CN5CC6(COC6)C5)nc4c2F)N2C[C@H]4CC[C@H](N4)[C@H]2[C@H](C)O3)c1C(F)(F)F [Compound 145] | 68.7 | 5120
Cc1c(F)c(N)cc(-c2nc3c4c(nc(OC[C@@H](F)CN5CC(CO)(CO)C5)nc4c2F)N2C[C@H]4CC[C@H](N4)[C@H]2[C@H](C)O3)c1C(F)(F)F [Compound 146] | 1740 | 20000
Cc1c(F)c(N)cc(-c2nc3c4c(nc(OCCC5(N6CCOCC6)COC5)nc4c2F)N2C[C@H]4CC[C@H](N4)[C@H]2[C@H](C)O3)c1C(F)(F)F [Compound 149, 2-Fluoro-5-((5S,5aS,6S,9R)-1-fluoro-5-methyl-12-(2-(3-morpholinooxetan-3-yl)ethoxy)-5a,6,7,8,9,10-hexahydro-5H-4-oxa-3,10a,11,13,14-pentaaza-6,9-methanonaphtho[1,8-ab]heptalen-2-yl)-3-methyl-4-(trifluoromethyl)aniline] | 186 | 20000
Cc1c(F)c(N)cc(-c2nc3c4c(nc(OCC[C@@H]5CC[C@H]6COCCN56)nc4c2F)N2C[C@H]4CC[C@H](N4)[C@H]2[C@H](C)O3)c1C(F)(F)F [Compound 154, 2-Fluoro-5-((5S,5aS,6S,9R)-1-fluoro-12-(2-((6S,8aS)-hexahydro-1H-pyrrolo[2,1-c][1,4]oxazin-6-yl)ethoxy)-5-methyl-5a,6,7,8,9,10-hexahydro-5H-4-oxa-3,10a,11,13,14-pentaaza-6,9-methanonaphtho[1,8-ab]heptalen-2-yl)-3-methyl-4-(trifluoromethyl)aniline] | 20.5 | 4100
C[C@@H]1Oc2nc(-c3cc(N)c(F)c(F)c3C(F)(F)F)c(F)c3nc(OCC45CCN4CC(F)(F)C5)nc(c23)N2C[C@H]3CC[C@H](N3)[C@@H]12 (stereo partly drawn) [Compound 155, 5-((5S,5aS,6S,9R)-12-((3,3-difluoro-1-azabicyclo[3.2.0]heptan-5-yl)methoxy)-1-fluoro-5-methyl-5a,6,7,8,9,10-hexahydro-5H-4-oxa-3,10a,11,13,14-pentaaza-6,9-methanonaphtho[1,8-ab]heptalen-2-yl)-2,3-difluoro-4-(trifluoromethyl)aniline] | 8.84 | 4750
C[C@@H]1Oc2nc(-c3cc(N)cc(F)c3C(F)(F)F)c(F)c3nc(OCC4CCC5N4CCOC5(C)C)nc(c23)N2C[C@H]3CC[C@H](N3)[C@@H]12 (stereo partly drawn) [Compound 157, 3-((5S,5aS,6S,9R)-12-((1,1-Dimethylhexahydro-1H-pyrrolo[2,1-c][1,4]oxazin-6-yl)methoxy)-1-fluoro-5-methyl-5a,6,7,8,9,10-hexahydro-5H-4-oxa-3,10a,11,13,14-pentaaza-6,9-methanonaphtho[1,8-ab]heptalen-2-yl)-5-fluoro-4-(trifluoromethyl)aniline] | 12.8 | 2140
C[C@@H]1Oc2nc(-c3cc(N)c(F)c(F)c3CC(F)F)c(F)c3cc(OC[C@@H]4CC[C@H]5COCCN54)nc(c23)N2C[C@H]3CC[C@H](N3)[C@@H]12 [Compound 158, 4-(2,2-Difluoroethyl)-2,3-difluoro-5-((5S,5aS,6S,9R)-1-fluoro-13-(((6S,8aS)-hexahydro-1H-pyrrolo[2,1-c][1,4]oxazin-6-yl)methoxy)-5-methyl-5a,6,7,8,9,10-hexahydro-5H-6,9-epiminoazepino[2′,1′:3,4][1,4]oxazepino[5,6,7-ij][2,7]naphthyridin-2-yl)aniline] | 9.94 | 13800
Cc1c(F)c(N)cc(-c2nc3c4c(nc(OC[C@H]5[C@H](C#N)CCN5C)nc4c2F)N2C[C@H]4CC[C@H](N4)[C@H]2[C@H](C)O3)c1C(F)(F)F [Compound 161, (2R,3R)-2-((((5S,5aS,6S,9R)-2-(5-Amino-4° fluoro-3-methyl-2-(trifluoromethyl)°henyl)-1-fluoro-5-methyl-5a,6,7,8,9,10-hexahydro-5H-4-oxa-3,10a,11,13,14-pentaaza-6,9-methanonaphtho[1,8-ab]heptalen-12-yl)oxy)methyl)-1-methylpyrrolidine-3-carbonitrile] | 68.9 | 13000
Cc1c(F)c(N)cc(-c2nc3c4c(nc(OCCCN5C[C@H]6C[C@@H]5CO6)nc4c2F)N2C[C@H]4CC[C@H](N4)[C@H]2[C@H](C)O3)c1C(F)(F)F [Compound 163, 5-((5S,5aS,6S,9R)-12-(3-((1R,4R)-2-Oxa-5-azabicyclo[2.2.1]heptan-5-yl)propoxy)-1-fluoro-5-methyl-5a,6,7,8,9,10-hexahydro-5H-4-oxa-3,10a,11,13,14-pentaaza-6,9-methanonaphtho[1,8-ab]heptalen-2-yl)-2-fluoro-3-methyl-4-(trifluoromethyl)aniline] | 10.2 | 1140
Cc1c(F)c(N)cc(-c2nc3c4c(nc(OCCCN5C[C@@H]6C[C@H]5CO6)nc4c2F)N2C[C@H]4CC[C@H](N4)[C@H]2[C@H](C)O3)c1C(F)(F)F [Compound 164, 5-((5S,5aS,6S,9R)-12-(3-((1S,4S)-2-oxa-5-azabicyclo[2.2.1]heptan-5-yl)propoxy)-1-fluoro-5-methyl-5a,6,7,8,9,10-hexahydro-5H-4-oxa-3,10a,11,13,14-pentaaza-6,9-methanonaphtho[1,8-ab]heptalen-2-yl)-2-fluoro-3-methyl-4-(trifluoromethyl)aniline] | 43.8 | 7110
Cc1c(F)c(N)cc(-c2nc3c4c(nc(OCC5(CN6C[C@@H]7C[C@H]6CO7)CC5)nc4c2F)N2C[C@H]4CC[C@H](N4)[C@H]2[C@H](C)O3)c1C(F)(F)F [Compound 169, 5-((5S,5aS,6S,9R)-12-((1-(((1S,4S)-2-Oxa-5-azabicyclo[2.2.1]heptan-5-yl)methyl)cyclopropyl)methoxy)-1-fluoro-5-methyl-5a,6,7,8,9,10-hexahydro-5H-4-oxa-3,10a,11,13,14-pentaaza-6,9-methanonaphtho[1,8-ab]heptalene-2-yl)-2-fluoro-3-methyl-4-(trifluoromethyl)aniline] | 0.92 | 454
